Assay results: US10047080B2, “(R)-2-methyl-piperazine derivatives as CXCR3 receptor modulators” (Idorsia Pharmaceuticals Ltd., priority 2015, dated 2018)
pIC50: −log10 of the molar value.

What was measured:
Assay type in all cases: cell-based
[1] = biological target: human CXCR3A (Homo sapiens (Human), UniProt P49682); assay: FLIPR assay (calcium flux, CXCL10-induced); conditions: CHO-K1 cells expressing human CXCR3A coupled to Galpha(16); CXCL10 agonist at 20 nM
Protocol: The bioactivity of compounds is tested in a fluorometric imaging plate reader (FLIPR: Molecular Devices) using engineered CHO-K1 cells expressing the human CXCR3A (GenBank: AY242128) coupled to a G protein (Galpha(16)). Cells are plated the day prior to bioassay in F12 medium supplemented with 10% FBS and G418 and hygromycin antibiotics to maintain recombinant selection. At the day of bioassay, cells are washed and dye loaded for one hour with Fluo-4-AM (Invitrogen) in Hanks Balanced Salt Solution (Invitrogen), buffered with 20 mM Hepes at pH 7.4 and sodium bicarbonate (0.038%), containing 5 mM probenecid. This buffer, but lacking the dye and containing probenecid at a concentration of 2.5 mM, is also used for washing steps (wash buffer); or lacking both dye and probenecid but supplemented with 0.1% BSA for compound dilution steps (dilution buffer). Cells are washed free of excess dye and 60 microliter of wash buffer is added. Stock solutions of test compounds are made up at a concentration of 10 mM in DMSO, and serially diluted in dilution buffer to concentrations required for inhibition dose response curves. After a 10 minute incubation period at 37° C., 10 microliters of each compound dilution are transferred from a compound plate to the plate containing the recombinant cells in the FLIPR instrument according to the manufacturer's instructions. Following basal readings, 10 microliter CXCL10 agonist at a concentration of 20 nM (from Peprotech) is added, again using the FLIPR instrument. Changes in fluorescence are monitored before and after addition of the test compounds. Emission peak values above base level after CXCL10 addition are exported after base line subtraction.
(§1) The calculated IC50 values may fluctuate depending on the daily assay performance. Fluctuations of this kind are known to those skilled in the art. In the case where IC50 values have been determined several times for the same compound, mean values are given. Data for the FLIPR assay are shown in Table 1 and for the receptor internalization assay (RIA) in Table 2.

[2] = biological target: CXCR3 (Homo sapiens (Human), UniProt P49682); assay: Receptor internalization assay (RIA) in human whole blood; conditions: final CXCL10 9 nM, CXCR3 surface expression on CD4 positive cells
Protocol: Stock solutions of test compounds are made up at a concentration of 10 mM in DMSO, and serially diluted in PBS containing 0.5% BSA to concentrations required for inhibition dose response curves. Diluted compounds are then mixed with an equal volume of CXCL10 (Peprotech) diluted in PBS. Anticoagulated venous human whole blood is added to the mixture, which is then incubated in a CO2 incubator at 37° C. to allow for ligand mediated receptor internalization (final CXCL10 concentration is 9 nM). After 30 min, the blood is mixed with fluorescently labeled CXCR3 and CD4 specific antibodies (Becton Dickinson) and incubated on ice for 10 minutes. Samples are then mixed with BD FACS Lysing Solution (Becton Dickinson) in order to eliminate red blood cells. After washing the cells with PBS containing 0.5% BSA, the samples are then analyzed in a flow cytometer (FACS Canto II, Becton Dickinson). For data analysis using FACSDiva software (Becton Dickinson), the mean fluorescence corresponding to CXCR3 cell surface expression was determined on CD4 positive cells.
as §1

[3] = biological target: hERG K channel (Homo sapiens (Human), UniProt Q12809); assay: hERG Q-Patch assay; conditions: CHO cells expressing hERG, K+ tail current
Protocol: Compounds are evaluated for block of the hERG K channel using CHO cells stably expressing the hERG gene (accession number U04270, bSys, Witterswil, Switzerland) and the QPatch robotic platform (Sophion, Ballerup, Denmark) in single-cell mode at room temperature. Cells are grown in culture flasks at 37° C. in 5% CO2, in culture medium (Ham's F-12 Nutrient Mixture, Invitrogen 21765-029) supplemented with 9% (v/v) fetal calf serum, 0.9% Penicillin/Streptomycin (10,000 U/mL, Invitrogen 15140148), 100 μg/mL Hygromycin B (Invitrogen 10687010). When the cells are ˜80% confluent (every 2-3 days), they are either split for further culture or used for electrophysiology. For further culture, cells are detached with 0.25% Trypsin EDTA solution (Invitrogen 25200-056) and a fraction of the cells (10-30%) is reseeded in culture medium. For electrophysiology, on the experimental day, cells are detached with 0.25% Trypsin EDTA solution and all cells are suspended in suspension medium (293 SFM II, Invitrogen 11686-029) supplemented with 20 mM HEPES and 0.04 mg/mL Trypsin inhibitor. Cells are kept in suspension medium at 32-35° C. in the QPatch robot until use, at which time aliquots are transferred to the extracellular solution (in mM: NaCl 150; KCl 4; CaCl2 1.2; MgCl2 1; HEPES 10; pH 7.4 with NaOH) containing 0.3% v/v DMSO and applied to the test plates. K+ currents are measured with the patch-voltage-clamp technique in the whole-cell configuration with the internal solution (in mM: KCl, 140; NaCl, 10; MgCl2, 1; HEPES, 10; EGTA, 5; pH=7.2 with KOH). Currents are low-pass filtered using the internal Bessel filter of the QPatch robot with a cut-off frequency of 2 kHz and are digitized at 10 kHz. K^+ tail currents are produced from a holding voltage of −80 mV by a 500-ms depolarization to +20 mV followed by a 500-ms repolarization to −40 mV; tail current amplitudes are measured at the end of the repolarization to −40 mV. The pulse pattern is repeated every 10 sec during the experiment, baseline K^+ current is measured after 3 min in extracellular solution, test-solution containing compound is then applied, and K^+ current in presence of compound is measured 3 minutes after application to the cells. The respective test-solution is prepared by (1) dissolving the test-compound in pure DMSO, (2) diluting this DMSO solution in extracellular solution, and (3) adding further DMSO, such that the final test-solution has a concentration of either 300 nM or 3000 nM of the test-compound and contains 0.3% v/v DMSO. Compound effects are quantified as % block by dividing the current in presence of compound by the baseline current; two or three experiments are performed for each compound and the final value represents the mean of the results of each experiment.

Chain of hERG K channel (Q12809 whole entry): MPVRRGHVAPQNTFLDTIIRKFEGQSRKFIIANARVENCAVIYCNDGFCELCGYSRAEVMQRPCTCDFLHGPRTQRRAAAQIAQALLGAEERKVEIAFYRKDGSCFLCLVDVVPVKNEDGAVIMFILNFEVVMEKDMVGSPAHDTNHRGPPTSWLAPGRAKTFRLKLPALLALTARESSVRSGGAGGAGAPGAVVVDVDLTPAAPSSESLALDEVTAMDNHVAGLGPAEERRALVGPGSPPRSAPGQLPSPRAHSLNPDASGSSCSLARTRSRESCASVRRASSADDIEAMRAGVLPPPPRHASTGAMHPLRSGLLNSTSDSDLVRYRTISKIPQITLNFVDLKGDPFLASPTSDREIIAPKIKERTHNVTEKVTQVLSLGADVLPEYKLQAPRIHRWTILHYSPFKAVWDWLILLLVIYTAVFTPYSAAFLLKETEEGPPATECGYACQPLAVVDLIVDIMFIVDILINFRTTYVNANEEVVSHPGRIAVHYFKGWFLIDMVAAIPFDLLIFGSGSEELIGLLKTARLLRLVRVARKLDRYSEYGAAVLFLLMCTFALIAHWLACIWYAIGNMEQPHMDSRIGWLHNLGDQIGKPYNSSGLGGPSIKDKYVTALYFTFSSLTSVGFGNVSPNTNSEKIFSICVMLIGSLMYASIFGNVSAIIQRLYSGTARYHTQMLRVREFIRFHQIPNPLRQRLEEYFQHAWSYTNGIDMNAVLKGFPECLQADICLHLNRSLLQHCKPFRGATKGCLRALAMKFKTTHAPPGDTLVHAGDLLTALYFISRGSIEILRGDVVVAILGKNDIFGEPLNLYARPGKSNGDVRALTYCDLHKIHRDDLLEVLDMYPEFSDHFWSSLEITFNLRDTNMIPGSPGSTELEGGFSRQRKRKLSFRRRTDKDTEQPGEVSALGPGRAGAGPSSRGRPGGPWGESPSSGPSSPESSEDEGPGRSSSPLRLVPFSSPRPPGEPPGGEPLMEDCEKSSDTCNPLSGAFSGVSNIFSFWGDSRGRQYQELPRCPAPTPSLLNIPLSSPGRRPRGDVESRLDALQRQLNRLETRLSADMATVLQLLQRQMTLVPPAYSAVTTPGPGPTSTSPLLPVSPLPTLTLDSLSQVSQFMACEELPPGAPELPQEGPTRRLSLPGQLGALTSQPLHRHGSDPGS
Chain of human CXCR3A (P49682 whole entry): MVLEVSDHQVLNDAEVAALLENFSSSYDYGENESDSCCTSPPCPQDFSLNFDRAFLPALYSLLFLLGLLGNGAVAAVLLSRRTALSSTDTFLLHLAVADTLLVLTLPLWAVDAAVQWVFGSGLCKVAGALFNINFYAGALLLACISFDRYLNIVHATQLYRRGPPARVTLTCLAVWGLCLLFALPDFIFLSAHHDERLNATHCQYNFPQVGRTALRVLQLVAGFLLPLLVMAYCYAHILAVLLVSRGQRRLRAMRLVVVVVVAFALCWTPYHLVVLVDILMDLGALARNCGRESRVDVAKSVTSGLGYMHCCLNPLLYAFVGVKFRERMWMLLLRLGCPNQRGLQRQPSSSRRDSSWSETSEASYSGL
Chain of CXCR3 (P49682 whole entry): as above

Structure (SMILES)	pIC50 [1]	pIC50 [2]	% block ([3]; concentration 300 nM) [%]	% block ([3]; concentration 3000 nM) [%]
CC(O)c1ncn(CC(=O)N2CCN(c3sc(C(F)(F)F)nc3-c3cnc(C(F)(F)F)nc3)C[C@H]2C)n1 (stereo partly drawn) [Example 12, 2-[3-(1-Hydroxy-ethyl)-[1,2,4]triazol-1-yl]-1-{(R)-2-methyl-4-[2-trifluoromethyl-4-(2-trifluoromethyl-pyrimidin-5-yl)-thiazol-5-yl]-piperazin-1-yl}-ethanone]	9.05	6.25	0	4
CCc1ncn(CC(=O)N2CCN(c3sc(C(F)(F)F)nc3-c3cnc(C(F)(F)F)nc3)C[C@H]2C)n1 [Example 6, 2-(3-Ethyl-[1,2,4]triazol-1-yl)-1-{(R)-2-methyl-4-[2-trifluoromethyl-4-(2-trifluoromethyl-pyrimidin-5-yl)-thiazol-5-yl]-piperazin-1-yl}-ethanone]	8.70	6.83	5	22
CC(C)c1ncn(CC(=O)N2CCN(c3sc(C(F)(F)F)nc3-c3cnc(C(F)(F)F)nc3)C[C@H]2C)n1 [Example 7, 2-(3-Isopropyl-[1,2,4]triazol-1-yl)-1-{(R)-2-methyl-4-[2-trifluoromethyl-4-(2-trifluoromethyl-pyrimidin-5-yl)-thiazol-5-yl]-piperazin-1-yl}-ethanone]	8.89	6.76	5	24
CC(C)c1ncn(CC(=O)N2CCN(c3sc(C(F)(F)F)nc3-c3cnc(OC4CCC4)nc3)C[C@H]2C)n1 [Example 14, 1-{(R)-4-[4-(2-Cyclobutoxy-pyrimidin-5-yl)-2-trifluoromethyl-thiazol-5-yl]-2-methyl-piperazin-1-yl}-2-(3-isopropyl-[1,2,4]triazol-1-yl)-ethanone]	8.92	6.34	4	27
CC(C)c1ncn(CC(=O)N2CCN(c3sc(C(F)(F)F)nc3-c3cnc(C4CC4)nc3)C[C@H]2C)n1 [Example 16, 1-{(R)-4-[4-(2-Cyclopropyl-pyrimidin-5-yl)-2-trifluoromethyl-thiazol-5-yl]-2-methyl-piperazin-1-yl}-2-(3-isopropyl-[1,2,4]triazol-1-yl)-ethanone]	9.15	6.28	1	25
CCOc1ncc(-c2nc(C(F)(F)F)sc2N2CCN(C(=O)Cn3cnc(C)n3)[C@H](C)C2)cn1 [Example 19, 1-{(R)-4-[4-(2-Ethoxy-pyrimidin-5-yl)-2-trifluoromethyl-thiazol-5-yl]-2-methyl-piperazin-1-yl}-2-(3-methyl-[1,2,4]triazol-1-yl)-ethanone]	8.74	6.68	9	14
COCc1ncn(CC(=O)N2CCN(c3sc(C(F)(F)F)nc3-c3cnc(C4CC4)nc3)C[C@H]2C)n1 [Example 18, 1-{(R)-4-[4-(2-Cyclopropyl-pyrimidin-5-yl)-2-trifluoromethyl-thiazol-5-yl]-2-methyl-piperazin-1-yl}-2-(3-methoxymethyl-[1,2,4]triazol-1-yl)-ethanone]	8.51	5.86	10	22
CCOc1ncc(-c2nc(C(F)(F)F)sc2N2CCN(C(=O)Cn3cnc(COC)n3)[C@H](C)C2)cn1 [Example 4, 1-{(R)-4-[4-(2-Ethoxy-pyrimidin-5-yl)-2-trifluoromethyl-thiazol-5-yl]-2-methyl-piperazin-1-yl}-2-(3-methoxymethyl-[1,2,4]triazol-1-yl)-ethanone]	7.89	6.02	5	10
